# Earlier results, collected in PMC8036510, “The Inhibitory Effects of Plant Derivate Polyphenols on the Main Protease of SARS Coronavirus 2 and Their Structure–Activity Relationship” (Molecules, 2021).
# How the values were obtained:
# M^pro [1] = system: M^pro; parameters: method as in PMID 32963564; settings: 37 °C for 5 h, same substrate
# M^pro [2] = system: M^pro; parameters: method as in PMID 33022015; settings: substrate MCA-AVLQSGFR-K(Dnp)-K-NH2
SMILES,IC50 on M^pro (M^pro [1]) [µg/mL],IC50 (M^pro [2]) [nM]
"O=C(O[C@@H]1Cc2c(O)cc(O)cc2O[C@@H]1c1cc(O)c(O)c(O)c1)c1cc(O)c(O)c(O)c1 [Epigallocatechin gallate (EGCG), Epigallocatechin gallate]",7.6,–
O=C(OC[C@H]1O[C@@H](OC(=O)c2cc(O)c(O)c(OC(=O)c3cc(O)c(O)c(O)c3)c2)[C@H](OC(=O)c2cc(O)c(O)c(OC(=O)c3cc(O)c(O)c(O)c3)c2)[C@@H](OC(=O)c2cc(O)c(O)c(OC(=O)c3cc(O)c(O)c(O)c3)c2)[C@@H]1OC(=O)c1cc(O)c(O)c(OC(=O)c2cc(O)c(O)c(O)c2)c1)c1cc(O)c(O)c(OC(=O)c2cc(O)c(O)c(O)c2)c1 [Tannic acid],–,2100
